Reference: PubChem BioAssay AID1259411 (Chemical Carcinogenesis Research Information System (CCRIS), 2018)
Active and inactive are the calls of the source. The rule behind the calls is not given here.

Test system: rodent carcinogenicity bioassays, tumor incidence
Assay: CCRIS carcinogenicity studies
Method in brief: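 Archive of carcinogenicity, mutagenicity, tumor promotion and tumor inhibition results drawn from journals, NCI reports and other sources, expert-reviewed; covers 1985-2011 and is no longer updated.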

For Clc1ccc2c(c1)Oc1ccc(Cl)cc1O2, the carcinogen call (Species: MOUSE, Strain/Sex: B6C3F1/FEMALE, Route: ORAL, Dose: 0, 5,000, 10,000 PPM IN DIET FOR 90 WK (STUDY DURATION: 91-98 WK), Dose: 0, 5,000, 10,000 PPM IN DIET FOR 90 WK (STUDY DURATION: 91-98 WK)) was “inactive; negative”, the carcinogen call (Species: MOUSE, Strain/Sex: B6C3F1/MALE, Route: ORAL, Dose: 0, 5000, 10000 PPM IN DIET FOR 90 WK (STUDY DURATION: 92-101 WK), Dose: 0, 5000, 10000 PPM IN DIET FOR 90 WK (STUDY DURATION: 92-101 WK), Tumor Site: Type of Lesion: LIVER: HEPTOCELLULAR ADENOMA OR CARCINOMA, HEMATOPOIETIC SYSTEM: LYMPHOMA OR LEUKEMIA, SPLEEN: HEMANGIOMA OR HEMANGIOSAR, Tumor Site: Type of Lesion: LIVER: HEPTOCELLULAR ADENOMA OR CARCINOMA, HEMATOPOIETIC SYSTEM: LYMPHOMA OR LEUKEMIA, SPLEEN: HEMANGIOMA OR HEMANGIOSAR) was “equivocal” and the carcinogen call (Species: RAT, Strain/Sex: OSBORNE-MENDEL/FEMALE, Route: ORAL, Dose: 0, 5,000, 10,000 PPM IN DIET FOR 110 WK (STUDY DURATION: 110-117 WK), Dose: 0, 5,000, 10,000 PPM IN DIET FOR 110 WK (STUDY DURATION: 110-117 WK)) was “inactive; negative”. The carcinogen call (Species: RAT, Strain/Sex: OSBORNE-MENDEL/MALE, Route: ORAL, Dose: 0, 5,000, 10,000 PPM IN DIET FOR 110 WK (STUDY DURATION: 110-112 WK), Dose: 0, 5,000, 10,000 PPM IN DIET FOR 110 WK (STUDY DURATION: 110-112 WK)) was “inactive; negative”.

With C=CCOC(Cn1ccnc1)c1ccc(Cl)cc1Cl (stereo not given) the carcinogen call (Species: Mouse, Strain/Sex: Swiss/Female (50/Group), Route: Oral, Dose: 0, 50, 200, 600 ppm 93% imazalil in diet in 50:50 Aerosil:corn starch for 2 yr, study duration 2 yr, Dose: 0, 50, 200, 600 ppm 93% imazalil in diet in 50:50 Aerosil:corn starch for 2 yr, study duration 2 yr, Tumor Site: Type of Lesion: Liver: hepatocytic neoplasms) was “active; positive”, the carcinogen call (Species: Mouse, Strain/Sex: Swiss/Male (50/Group), Route: Oral, Dose: 0, 50, 200, 600 ppm 93% imazalil in diet in 50:50 Aerosil:corn starch for 2 yr, study duration 2 yr, Dose: 0, 50, 200, 600 ppm 93% imazalil in diet in 50:50 Aerosil:corn starch for 2 yr, study duration 2 yr, Tumor Site: Type of Lesion: Liver: hepatocytic neoplasms) was “active; positive” and the carcinogen call (Species: Rat, Strain/Sex: Cpb:WU/Female (20/Group), Route: Oral, Dose: 0, 25, 100, 400 ppm 98.1% imazalil in diet for 18 mo, study duration 18 mo, Dose: 0, 25, 100, 400 ppm 98.1% imazalil in diet for 18 mo, study duration 18 mo) was “inactive; negative”. For the same compound, the carcinogen call (Species: Rat, Strain/Sex: Cpb:WU/Male (20/Group), Route: Oral, Dose: 0, 25, 100, 400 ppm 98.1% imazalil in diet for 18 mo, study duration 18 mo, Dose: 0, 25, 100, 400 ppm 98.1% imazalil in diet for 18 mo, study duration 18 mo) was “inactive; negative”.

CCCCCN(N=O)C(N)=O was tested, and the carcinogen call (Species: RAT, Strain/Sex: F344/FEMALE, Route: GAVAGE, Dose: 0, 16 MG/ML (TOTAL DOSE 0; 2 MMOL) IN 2 ML ETHYL ACETATE AND CORN OIL (1:2) 2/WK FOR 50 WK (STUDY DURATION: LIFETIME), Dose: 0, 16 MG/ML (TOTAL DOSE 0; 2 MMOL) IN 2 ML ETHYL ACETATE AND CORN OIL (1:2) 2/WK FOR 50 WK (STUDY DURATION: LIFETIME), Tumor Site: Type of Lesion: FORESTOMACH: SQUAMOUS CELL CARCINOMA, LUNG: TUMOR, UTERUS: TUMOR, Tumor Site: Type of Lesion: FORESTOMACH: SQUAMOUS CELL CARCINOMA, LUNG: TUMOR, UTERUS: TUMOR) was “active; positive”, the carcinogen call (Species: RAT, Strain/Sex: F344/FEMALE, Route: GAVAGE, Dose: 0, 16 MG/ML IN 0.2 ML ETHYL ACETATE AND CORN OIL 2/WK FOR 50 WK (STUDY DURATION: LIFESPAN), Tumor Site: Type of Lesion: FORESTOMACH: TUMOR, LUNG: TUMOR, UTERUS: TUMOR, Tumor Site: Type of Lesion: FORESTOMACH: TUMOR, LUNG: TUMOR, UTERUS: TUMOR) was “active; positive” and the carcinogen call (Species: RAT, Strain/Sex: F344/MALE, Route: GAVAGE, Dose: 0, 16 MG/ML (TOTAL DOSE 0; 2 MMOL) IN 2 ML ETHYL ACETATE AND CORN OIL (1:2) 2/WK FOR 50 WK (STUDY DURATION: LIFETIME), Dose: 0, 16 MG/ML (TOTAL DOSE 0; 2 MMOL) IN 2 ML ETHYL ACETATE AND CORN OIL (1:2) 2/WK FOR 50 WK (STUDY DURATION: LIFETIME), Tumor Site: Type of Lesion: FORESTOMACH: SQUAMOUS CELL CARCINOMA, LUNG: TUMOR, BODY CAVITY: MESOTHELIOMA, Tumor Site: Type of Lesion: FORESTOMACH: SQUAMOUS CELL CARCINOMA, LUNG: TUMOR, BODY CAVITY: MESOTHELIOMA) was “active; positive”. The carcinogen call (Species: RAT, Strain/Sex: F344/MALE, Route: GAVAGE, Dose: 0, 16 MG/ML IN 0.2 ML ETHYL ACETATE AND CORN OIL 2/WK FOR 50 WK (STUDY DURATION: LIFESPAN), Tumor Site: Type of Lesion: FORESTOMACH: TUMOR, LUNG: TUMOR: PERITONEUM: MESOTHELIOMA, SKIN: TUMOR, Tumor Site: Type of Lesion: FORESTOMACH: TUMOR, LUNG: TUMOR: PERITONEUM: MESOTHELIOMA, SKIN: TUMOR) was “active; positive”.

In the case of O=C(CO)CO, the carcinogen call (Species: MOUSE, Strain/Sex: SWISS/FEMALE, Route: DERMAL, Dose: 0, 5, 40% AQUEOUS SOLUTION APPLIED 1/WK FOR 80 WK (STUDY DURATION: 80 WK), Dose: 0, 5, 40% AQUEOUS SOLUTION APPLIED 1/WK FOR 80 WK (STUDY DURATION: 80 WK)) is reported as “inactive; negative” and the carcinogen call (Species: MOUSE, Strain/Sex: SWISS/MALE, Route: DERMAL, Dose: 0, 5%, 40% AQUEOUS SOLUTION APPLIED 1/WK FOR 80 WK (STUDY DURATION: 80 WK), Dose: 0, 5%, 40% AQUEOUS SOLUTION APPLIED 1/WK FOR 80 WK (STUDY DURATION: 80 WK)) is reported as “inactive; negative”.

In the case of ClCc1ccccc1, the carcinogen call (Species: MOUSE, Strain/Sex: B6C3F1/FEMALE, Route: ORAL (GAVAGE), Dose: 0, 50, 100 MG/KG BW 3 X A WK FOR 2 YRS (TEST MATERIAL SOLVENT: CORN OIL), Dose: 0, 50, 100 MG/KG BW 3 X A WK FOR 2 YRS (TEST MATERIAL SOLVENT: CORN OIL), Tumor Site: Type of Lesion: FORESTOMACH: CARCINOMA AND PAPILLOMA, LUNG: ALVEOLAR-BRONCHIOLAR ADENOMA OR CARCINOMA (HIGH DOSE ONLY, P=0.053)) is reported as “active; positive”, the carcinogen call (Species: MOUSE, Strain/Sex: B6C3F1/MALE, Route: ORAL (GAVAGE), Dose: 0, 50, 100 MG/KG BW 3 X A WK FOR 2 YRS (TEST MATERIAL SOLVENT: CORN OIL), Dose: 0, 50, 100 MG/KG BW 3 X A WK FOR 2 YRS (TEST MATERIAL SOLVENT: CORN OIL), Tumor Site: Type of Lesion: FORESTOMACH: CARCINOMA AND PAPILLOMA, LIVER: CARCINOMA OR ADENOMA (LOWER DOSE ONLY), CIRCULATORY SYSTEM: HEMANGIOMA OR H, Tumor Site: Type of Lesion: FORESTOMACH: CARCINOMA AND PAPILLOMA, LIVER: CARCINOMA OR ADENOMA (LOWER DOSE ONLY), CIRCULATORY SYSTEM: HEMANGIOMA OR H) is reported as “active; positive” and the carcinogen call (Species: RAT, Route: SUBCUTANEOUS, Tumor Site: Type of Lesion: INJECTION SITE) is reported as “active; positive”. For the same compound, the carcinogen call (Species: RAT, Strain/Sex: F344/FEMALE, Route: ORAL (GAVAGE), Dose: 0, 15, 30 MG/KG BW 3 X A WK FOR 2 YRS (TEST MATERIAL SOLVENT: CORN OIL), Dose: 0, 15, 30 MG/KG BW 3 X A WK FOR 2 YRS (TEST MATERIAL SOLVENT: CORN OIL), Tumor Site: Type of Lesion: THYROID: C-CELL NEOPLASMS) was “active; positive” and the carcinogen call (Species: RAT, Strain/Sex: F344/MALE, Route: ORAL (GAVAGE), Dose: 0, 15, 30 MG/KG BW 3 X A WK FOR 2 YRS (TEST MATERIAL SOLVENT: CORN OIL), Dose: 0, 15, 30 MG/KG BW 3 X A WK FOR 2 YRS (TEST MATERIAL SOLVENT: CORN OIL)) was “inactive; negative”.

In the case of O=C1O[C@@H](CN2CCOCC2)CN1N=Cc1ccc([N+](=O)[O-])o1, the carcinogen call (Species: RAT, Route: ORAL, Tumor Site: Type of Lesion: LYMPHATIC SYSTEM: LYMPHOBLASTIC LYMPHOMA, MAMMARY GLAND) is reported as “active; positive”.

For CC(C)N1C(=O)c2ccccc2NS1(=O)=O, the carcinogen call (Species: Mouse, Strain/Sex: B6C3F1/Female (70/sex/group), Route: Oral, Dose: 0, 100, 400, 2000 ppm in diet for 2 yr, Dose: 0, 100, 400, 2000 ppm in diet for 2 yr) was “inactive; negative; purity 93.3%”, the carcinogen call (Species: Mouse, Strain/Sex: B6C3F1/Male (70/sex/group), Route: Oral, Dose: 0, 100, 400, 2000 ppm in diet for 2 yr, Dose: 0, 100, 400, 2000 ppm in diet for 2 yr, Tumor Site: Type of Lesion: Liver: Combined hepatocellular adenoma and carcinoma (13/49 in controls and 22/49 at highest dose)) was “active; positive; purity 93.3%” and the carcinogen call (Species: Rat, Strain/Sex: Fischer 344/DU CRJ/Female (70/sex/group), Route: Oral, Dose: 0, 200, 800, 4000 ppm in diet for 2 yr, Dose: 0, 200, 800, 4000 ppm in diet for 2 yr) was “inactive; negative; purity 93.3%”. For the same compound, the carcinogen call (Species: Rat, Strain/Sex: Fischer 344/DU CRJ/Male (70/sex/group), Route: Oral, Dose: 0, 200, 800, 4000 ppm in diet for 2 yr, Dose: 0, 200, 800, 4000 ppm in diet for 2 yr) was “inactive; negative; purity 93.3%”.

In the case of CCC1c2ccc(O)cc2C(C)C1c1ccc(O)cc1 (stereo not given), the carcinogen call (Species: HAMSTER, Strain/Sex: SYRIAN/MALE, Route: SUBCUTANEOUS IMPLANT, Dose: 0, 20 MG IN PELLETS IMPLANTED EVERY 2.5 MO FOR 9 MO (STUDY DURATION: 9 MO)) is reported as “inactive; negative”.
